Measurements as given in patent US6958359B1, “Vanadium compounds as anti-angiogenic agents” (Parker Hughes Institute, priority 2000, dated 2005).

Experiments:
two-cell stage ZF eggs = assay: Zebrafish embryo microinjection into cytoplasm of two-cell stage eggs; assay type: in vivo, Danio rerio
Procedure: Microinjections were performed with the help of a SMZ-10A stereo microscope (Nicon, Melville, N.Y.) and transjector 5246 (Eppendorf Scientific Inc, Westbury, N.Y. 11590) at RT. The eggs in chorions were restrained in agar grooves filled with EM, and the drug containing solution was introduced into the cytoplasm of one of the blastomeres of the two-cell stage eggs through a micropipette with a splinted sharp tip of 2-3 μm in diameter. All microinjections were performed under visual control. Drugs for injection were dissolved in Hank's Balanced Salt Saline (Gibco, Rockville, Md.) with 10% DMSO. The volume of the solution injected into each blastomere was approximately […]. For every drug, 40-50 embryos were injected in 30 minutes of one series of experiment. After the treatment the embryos were transferred back to ST and studied as above.
(§1) Observations of cell division and development of the ZF embryos were carried out using a SMZ-10A stereo microscope (Nicon, Melville, N.Y.), once every 30 minutes within the first 3 hours of incubation and at 6, 12 and 24 hours, as well. […] The absorbance of each well was measured in a microplate reader (Labsystems) at 540 nm and a reference wavelength of 690 nm. The percent survival and the IC50 values were calculated using Graphpad Prism software version 2.0 (Graphpad Software, Inc., San Diego, Calif.), as described previously. […]

[1] = tested on: CAMs of growing chick embryos; assay: Chick embryo chorioallantoic membrane (CAM) assay, inhibition of angiogenesis; assay type: in vivo, chick (white Leghorn chicken); settings: for Avascular Zone: assessed 48 hours after implantation
Procedure: Inhibition of embryonic angiogenesis was determined using a bioassay system involving CAMs of growing chick embryos, as previously described (Nguyen et al, Microvascular Research, 47:31, 1994; Auerbach et al, Developmental Biology, 41:391, 1974). Fertilized white Leghorn chicken eggs were received at day 3 of incubation from the University of Minnesota Poultry Research Center, St. Paul, Minn. The following procedures took place in a sterile laminar flow hood. The eggs were wiped down with 70% isoprpyl alcohol and allowed to air dry. The eggs were wiped with Betadine and placed in a horizontal position for approximately 5 minutes and allowed to dry. The eggs were cracked and placed into sterile 100×20 mm^2 Petri dishes (Fischer, Itasca, Ill.) and transferred to a 37° C. humidified incubator (1.5% CO2). […] Louis, Mo.) were prepared by pipetting 10 μl of the compound, using a positive displacement pipette, onto sterile Teflon™ PFA Petri dishes (VWR, Chicago, Ill.) and drying in a vacuum desiccator at ambient temperature. […] The eggs were returned to a humidified 1.5% CO2/37° C. incubator.
Inhibition of angiogenesis was assessed 48 hours after implantation by measuring the avascular one in the CAM beneath the pellet, followed by photographic documentation of the CAM. Pellets containing 200 μg suramin (Calbiochem, La Jolla, Calif.) served as a positive control. The methylcellulose disk alone with no added compounds served as a negative control. Significant inhibition of angiogenesis was defined as the presence of an avascular zone of at least 3 mm in diameter around the methylcellulose disk.

[2] = tested on: BT-20 breast cancer cells; assay: Immunocytochemistry and confocal microscopic analysis of mitotic spindles; assay type: cell-based, human; settings: BT-20 cells, α-tubulin and DNA staining, confocal laser scanning microscopy
Procedure: At the appropriate time points coverslips containing BT-20 cells were fixed in−20° C. methanol for 15 minutes followed by 15 minutes incubation in phosphate buffered saline +0.1% Triton X-100 (PBS-Tx). Coverslips were next incubated with a primary antibody recognizing α-tubulin (Sigma, St.Louis Mo.) for 40 minutes in a humidified chamber at 37° C. Coverslips were washed for 15 minutes in PBS-Tx followed by a 40 minutes incubation with a fluorescently labeled secondary antibody (Jackson Immunoresearch, West Grove, Pa.). The coverslips were again rinsed in PBS-Tx and incubated with 5 μM Toto-3 (Molecular Probes, Eugene Oreg.) for 20 minutes to label the DNA. Coverslips were immediately inverted onto slides in Vectashield (Vector Labs, Burlingame, […].) to prevent photobleaching, sealed with nail polish and stored at 4° C.
Slides were examined using a Bio-Rad MRC-1024 Laser Scanning Confocal Microscope mounted on a Nikon Eclipse E800 upright microscope with high numerical aperture objectives. Slides were examined to determine the percentage of cells in interphase vs. mitosis and representative images were taken. Digital data was processed using Lasersharp (Bio-Rad, Hercules, Calif.) and Photoshop (Adobe Systems, Mountain View, Calif.) software and printed on a Pictrography printer (Fuji Photo Elmsford, N.Y.)

[3] = tested on: breast cancer cell line BT-20; assay: MTT cytotoxicity assay; assay type: cell-based, human; settings: BT-20, MTT, 48 hours; read-out: IC50 inhibition of proliferation
Procedure: (§2) Observations of cell division and development of the ZF embryos were carried out using a SMZ-10A stereo microscope (Nicon, Melville, N.Y.), once every 30 minutes within the first 3 hours of incubation and at 6, 12 and 24 hours, as well. […] The stereo microscope was fitted with a specially designed transparent heating tray in order to keep embryos at ST during observations. Pictures of the embryos were taken with a H-III Photomicrographic System (Nicon, Melville, N.Y.) using Ektachrome 64X film (Kodak, Rochester, N.Y.). Cytotoxicity MTF Assays The cytotoxicity of [VCp2(acac)](CF3SO3) against human cancer cell lines was performed as described previously (Ghosh et al, Clinc Canc Res, 6:1536, 2000) using the MTT (3-[4,5-dimethylthiazol-2-yl]-2,5-diphenyl tetrazolium bromide) assay (Boehringer Mannheim Corp., Indianapolis, Ind.). Briefly, exponentially growing tumor cells were seeded into a 96-well plate at a density of 2.5×10^4 cells/well and incubated [VCp2(acac)](CF3SO3) or 0.1% DMSO in PBS concentrations ranging from 0.1 to 250 μM. Following incubation with drug for 48 hours at 37° C., to each well, 10 μl of MTT (0.5 mg/ml final concentration) was added and the plates were incubated at 37° C. for 4 hours to allow MTT to form formazan crystals by reacting with metabolically active cells. The formazan crystals were solubilized overnight at 37° C. in a solution containing 10% SDS in 0.01 M HCl. The absorbance of each well was measured in a microplate reader (Labsystems) at 540 nm and a reference wavelength of 690 nm. The percent survival and the IC50 values were calculated using Graphpad Prism software version 2.0 (Graphpad Software, Inc., San Diego, Calif.), as described previously. Ghosh et al, Clinc Canc Res, 6:1536, 2000.

[4] = tested on: glioblastoma cell line U373; assay: MTT cytotoxicity assay; assay type: cell-based, human; settings: 48 hours, read-out: IC50 inhibition of proliferation
Procedure: as §2

[5] = tested on: breast cancer cell line MDA-MB-231; assay: MTT cytotoxicity assay; assay type: cell-based, human; settings: MDA-MB-231, MTT, 48 hours; read-out: IC50 inhibition of proliferation
Procedure: as §2

Zebra fish embryos = assay: Zebrafish embryo model system, incubation of dechorionated two-cell stage embryos with drug; assay type: in vivo, Danio rerio
Procedure: ZF eggs were removed from their chorions by mild digestion in 1% Trypsin-EDTA (Sigma, St.Louis, Mo.) for 10 minutes at 28.5° C. (Standard temperature—ST), washed three times in “egg water” and twice in “embryonic medium” (EM), according to recommendations (Westerfield, The Zebrafish Book, Supra). The dechorionated two-cell stage cleaving eggs were transferred to the 24-well plastic cell culture plates (Costar, Cambridge, Mass.) filled with EM. Dechorionated embryos (10-12 per well) were exposed to the drugs at a constant ST for 0.5-24 hours. The final volume of the media in each well was 500 μL. The compound was tested at concentrations ranging from 10 μM to 4 mM. First dissolved in DMSO, it was then diluted serially with the incubation medium. The final concentration of DMSO in the wells was 1.2%. […]
as §1

CC(=O)C=C(C)[O-].O=S(=O)([O-])C(F)(F)F.[V+4].c1cc[cH-]c1.c1cc[cH-]c1 [VDacac, Vanadocene acetylacetonato monotriflate]
anti-proliferative effect after microinjection (two-cell stage ZF eggs; 1 pmol/embryo microinjected): formation of a blastocoel-like cavity in the blastoderm of late blastulae and early gastrulae and disrupted further gastrulation
anti-proliferative effect after microinjection (two-cell stage ZF eggs; 40 pmols/cell microinjected): slowed down cell division and resulted in deterioration of the cell localization pattern and developmental block
Avascular Zone ([1]; VDacac 1 (mg) pellet on CAM): 7.0 ± 1.5 mm^2
Avascular Zone ([1]; VDacac 10 (mg) pellet on CAM): 38.4 ± 16.6 mm^2
Avascular Zone ([1]; VDacac 100 (mg) pellet on CAM): 92.4 ± 24.9 mm^2
effect on angiogenesis in CAM ([1]; methylcellulose disks, doses ranging from 1 μg to 100 μg, 4-6 day old chick embryos): rapidly inhibited angiogenesis and produced within one hour a large avascular zone
mitotic spindle organization [2]: aberrant monopolar mitotic structures
IC50 [3]: 25.1 µM
IC50 [4]: 35.7 µM
IC50 [5]: 9.6 µM
effect on cell division / embryonic development (Zebra fish embryos; 0.6 mM in embryonic medium, 28.5° C.): cell division block at the 8-16 cell stage of embryonic development followed by total cell fusion and developmental arrest
effect on cell division / embryonic development (Zebra fish embryos; concentrations lower than 0.6 mM, within 120 minutes of incubation): cell proliferation continued but was abnormal
